In US20120088772A1, “NOVEL PHARMACEUTICAL COMPOSITION FOR PREVENTION AND/OR TREATMENT OF ATTENTION DEFICIT/HYPERACTIVITY DISORDER” (ASTELLAS PHARMA INC., priority 2009, published 2012):
Structures can show the parent of a compound that is named as a salt.

How the values were obtained:
BEC1 potassium channel [1] = biological target: T1, BEC1 potassium channel (Homo sapiens, UniProt Q9ULD8); conditions: background statement; cited from earlier work
T1 sequence (Q9ULD8 1-1083): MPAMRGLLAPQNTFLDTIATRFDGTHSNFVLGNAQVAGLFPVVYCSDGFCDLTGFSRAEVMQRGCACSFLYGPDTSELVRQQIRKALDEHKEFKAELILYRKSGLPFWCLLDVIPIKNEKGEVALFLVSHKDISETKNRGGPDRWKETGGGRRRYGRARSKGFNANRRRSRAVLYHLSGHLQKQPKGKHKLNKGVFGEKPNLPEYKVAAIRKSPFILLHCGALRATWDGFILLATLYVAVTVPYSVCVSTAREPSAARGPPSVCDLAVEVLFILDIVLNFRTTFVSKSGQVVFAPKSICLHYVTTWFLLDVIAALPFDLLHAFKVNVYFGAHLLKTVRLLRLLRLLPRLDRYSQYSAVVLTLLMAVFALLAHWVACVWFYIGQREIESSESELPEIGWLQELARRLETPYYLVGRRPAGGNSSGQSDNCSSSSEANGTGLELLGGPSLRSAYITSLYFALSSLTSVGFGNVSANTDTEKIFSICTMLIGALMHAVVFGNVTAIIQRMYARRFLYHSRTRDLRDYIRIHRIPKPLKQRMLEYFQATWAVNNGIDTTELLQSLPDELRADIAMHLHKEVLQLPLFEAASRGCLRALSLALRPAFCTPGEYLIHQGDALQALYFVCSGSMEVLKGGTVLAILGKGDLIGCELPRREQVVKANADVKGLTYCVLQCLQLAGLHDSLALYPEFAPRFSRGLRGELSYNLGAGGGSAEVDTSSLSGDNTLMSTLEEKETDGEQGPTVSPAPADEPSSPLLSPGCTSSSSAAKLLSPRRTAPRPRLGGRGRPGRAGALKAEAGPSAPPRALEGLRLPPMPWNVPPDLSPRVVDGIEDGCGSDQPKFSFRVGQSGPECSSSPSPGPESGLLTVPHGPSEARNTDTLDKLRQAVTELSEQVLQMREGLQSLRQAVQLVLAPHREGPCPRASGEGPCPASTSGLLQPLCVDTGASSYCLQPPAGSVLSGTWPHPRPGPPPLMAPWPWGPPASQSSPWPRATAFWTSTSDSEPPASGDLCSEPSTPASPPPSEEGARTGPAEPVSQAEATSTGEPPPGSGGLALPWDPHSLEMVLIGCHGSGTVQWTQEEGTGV

[2] = tested on: spontaneously hypertensive stroke-prone rats (SHRSP); test: Passive avoidance response test with SHRSP (attention deficit/hyperactivity disorder model); type: in vivo, rat; conditions: for Minimum effective dose: 30 min before test; for Effect on cumulative entry latency of SHRSP: sum of entry latency of 2nd to 5th trial, compared with solvent group
Experimental: Verification of the therapeutic effect on attention deficit/hyperactivity disorder was carried out using spontaneously hypertensive stroke-prone rats (SHRSP). […] The method of Fox et al. (Fox, G. B. et al., Behay. Brain. Res., 131: 151-161, 2002) was partially modified, and the drug action on attention deficit/hyperactivity disorder was verified using a passive avoidance response test with SHRSP. That is, a solvent (vehicle), or dilutions prepared by diluting methylphenidate, compound (1), compound (2), compound (3), compound (4), and compound (5), with a solvent at multiple concentrations were administered to the rats in each group. Methylphenidate was subcutaneously administered, and compounds (1) to (5) were orally administered. As the solvent, physiological saline was used for methylphenidate and a 0.5% aqueous solution of methylcellulose was used for compounds (1) to (5). After 30 minutes of each drug administration, rats were placed in the bright room of the passive avoidance response measurement apparatus, and the time required for the rat to enter the dark room (entry latency) was measured. The longest time for measurement was 180 seconds. When rats entered in the dark room, a very weak electric current was forced to flow from a foot grid in the dark room. This trial was repeated five times, and the sum of the entry latency from 2nd time to 5th time (cumulative entry latency) was adopted as an indicator of the therapeutic effect on attention deficit/hyperactivity disorder. The test of significance difference was carried out between the solvent administered group and the drug administered groups, using Dunnett's test.

BEC1 potassium channel [3] = biological target: T1, BEC1 potassium channel; test: BEC1 inhibitory activity by 86Rb ion release from BEC1 expressing cells; type: cell-based; parameters: expressed in transfected cells; conditions: 86Rb release, BEC1 stably expressing CHO (dhfr-deficient) cells, 100 mM KCl stimulation; read-out: BEC1 Inhibittory Activity IC50
Experimental: Method for measuring BEC1 inhibitory activity of compound utilizing 86Rb ion release amount as indicator
The channel activity of BEC1 was measured according to the method described in U.S. Pat. No. 6,326,168 utilizing the release of the ions of radioactive isotope 86Rb from BEC1 expressing cells as an indicator. Specifically, when BEC1 expressing cells which had taken in 86Rb ions were stimulated with 100 mM KCl, the radioactivity released from the cells was designated as the channel activity of BEC1. 86Rb ions were incorporated into cells by culturing (3 hours, 37° C.) BEC1 stably expressing cells in the presence of 86RbCl (0.5 μCi/ml), and the unincorporated 86Rb ions were removed by washing the cells three times with HEPES buffered physiological saline (pH 7.4, 2.5 mM KCl). […]
The Cherenkov radioactivities of the extracellular fluid and the cell lysate were respectively measured, and the sum was designated as the total radioactivity. The release amount of 86Rb ions was expressed as the percentage of the radioactivity of the extracellular fluid to the total radiation activity. […] The inhibitory action of the compound was indicated as the IC50 value determined from the inhibition % (that is, (control value—test value)×100/(control value—blank value)). […]

[4] = oral, smallest dose giving significantly longer cumulative entry latency than solvent group (Dunnett's test)

Structure (SMILES) | Minimum effective dose [2, 4] [mg/kg p.o.] | Effect on cumulative entry latency of SHRSP [2] | also measured
C=C[C@H]1C[N@@]2CC[C@H]1C[C@@H]2[C@@H](O)c1ccnc2ccc(OC)cc12 [quinidine] | – | – | Inhibition of BEC1 potassium channels (BEC1 potassium channel [1]): do not inhibit
Fc1ccc(Nc2nc(NCc3ncccn3)nc(Nc3ccccc3)n2)cc1 [Compound (1), N-(4-fluorophenyl)-N′-phenyl-N″-(pyrimidin-2-ylmethyl)-1,3,5-triazine-2,4,6-triamine] | 0.1 | prolonged the cumulative entry latency | –
Fc1ccc(Nc2nc(NCc3ncccn3)nc(Nc3ccc(F)cc3)n2)cc1 [(2), N,N′-bis(4-fluorophenyl)-N″-(pyrimidin-2-ylmethyl)-1,3,5-triazine-2,4,6-triamine] | 0.03 | prolonged the cumulative entry latency | –
Fc1ccc(Nc2nc(NCc3ccncn3)nc(Nc3ccc(F)cc3)n2)cc1 [(4), N,N′-bis(4-fluorophenyl)-N″-(pyrimidin-4-ylmethyl)-1,3,5-triazine-2,4,6-triamine] | 0.03 | prolonged the cumulative entry latency | –
Fc1ccc(Nc2nc(NCc3ncccn3)nc(Nc3ccc(F)cc3)n2)cc1 (as salt: HCl) [(2), N,N′-bis(4-fluorophenyl)-N″-(pyrimidin-2-ylmethyl)-1,3,5-triazine-2,4,6-triamine] | – | – | melting point: 183 to 186 °C
COc1ccc(Nc2nc(NCc3ncccn3)nc(Nc3ccc(F)cc3)n2)cc1 [(3), N-(4-fluorophenyl)-N′-(4-methoxyphenyl)-N″-(pyrimidin-2-ylmethyl)-1,3,5-triazine-2,4,6-triamine] | 0.3 | prolonged the cumulative entry latency | –
COC(=O)C(c1ccccc1)C1CCCCN1 (stereo not shown) [Methylphenidate, methylphenidate, reference compound] | – | prolonged the cumulative entry latency | Minimum effective dose ([2]; subcutaneous (sc), smallest dose giving significantly longer cumulative entry latency than solvent group): 0.1(sc) mg/kg
Cl.Nc1nc(Nc2ccc(F)cc2)nc(N(Cc2ccnc(F)c2)c2ccccc2)n1 [(5), N-(4-fluorophenyl)-N′-[(2-fluoro-4-pyridyl)methyl]-N′-phenyl-1,3,5-triazine-2,4,6-triamine hydrochloride] | 3 | prolonged the cumulative entry latency | IC50 (BEC1 potassium channel [3]): 0.085 µM
CC[N+](CC)(CC)CC [tetraethylammonium] | – | – | Inhibition of BEC1 potassium channels (BEC1 potassium channel [1]): do not inhibit
